Source: US20070213359A1 (ACADIA Pharmaceuticals Inc., priority 2005, published 2007)
pIC50, pKi: −log10 of the molar value. Where two headings read alike, the source gives them in different places.

Columns and labels:
[1] = target: T1, GHSR1a receptor (Homo sapiens, UniProt Q92847); assay: 125I-Ghrelin binding assay; conditions: displacement of 125I-ghrelin (0.053 nM), membranes of HEK293 cells transfected with GHSR1a, Cheng-Prussoff, '—' not defined; for Ki: read-out: Binding pKi (converted)
T1 construct: expressed in transfected cells; host or cells: HEK293 (membranes)
Procedure: Plasmid DNA containing the GHSR1a receptor (12.5 ug/dish) in 0.675 ml DMEM was transfected into the cells by mixing with 180 ul PolyFect, 15 min later mixing in 2.25 ml 10% CS/DMEM, and transferring the mixture into the dish. At 16-18 h post transfection, medium was replaced with 25 ml fresh 10% FCS/1% PSG/DMEM to each dish for another 18-20 h. At approximately 48 hours post-transfection, cells were harvested in ice-cold membrane buffer (20 mM HEPES, 6 mM MgCl2, 1 mM EDTA, pH to 7.2) using a cell scraper, and pelleted by centrifugation.
Pelleted cells were added to a nitrogen cavitation chamber and 900 bar of pressure applied for 30 min. The pressure was slowly released the cavitated cells collected in 50 ml falcon tubes. The tubes were centrifuged at 1000 rpm, 4° C. for 10 min, and the supernatant collected. This centrifugation and collection was repeated two more times until the supernatant was free of precipitate (membranes are still in suspension). The supernatant was poured into a 50 ml centrifuge tube and centrifuged at 10.000 rpm, 4° C. for 20 min. The supernatant was discarded and the pellet re-suspended in 750 μl membrane binding buffer using a chilled 1 ml syringe with 25G5/8 needle to re-suspend membranes. The protein concentration was determined using the BioRad Protein Assay Dye Reagent according to the manufacturers instructions. The protein concentration was adjusted to 5 mg/ml and aliquots snap-frozed and stored at −80 C until use.
Membranes were thawed rapidly; diluted with binding buffer (25 mM Hepes+5 mM MgCl2, 1 mM CaCl2, 2.5 mM EDTA and 0.2% BSA) to a protein concentration of 0.8 ug/30 ul and placed on ice. 96-well plates (U-bottom wells) were prepared with serial dilutions (8 doses, 40 ul/w) of the test compounds. Membranes (30 uL/well) were then added, and incubated with test ligands for 30 min at room temperature with shaking. […] Binding was terminated by filtration through GF/B filters (presoaked with 0.1% polyethylenimine) with a Brandel 96-well harvester. The filters were washed with ice-cold binding buffer (150 ml/plate) and allowed to air-dry for 30 min. 50 ul MicroScient-20 cocktail was added to each dried well, the plates were sealed, and counted for 2 min/well using a TopCount scintillation counter (Packard).

[2] = target: Ghrelin receptor (Homo sapiens, UniProt Q92847); assay: Receptor Selection and Amplification Technology (R-SAT) assay; assay type: cell-based; design: expressed in transfected cells; host or cells: NIH3T3; conditions: for IC50: '—' not defined (nd used separately), read-out: RSAT pIC50 (converted); for Emax: read-out: RSAT Eff(%)
[3] = negative logarithm of ligand concentration causing 50% inhibition of constitutive receptor response, transfected NIH3T3 cells
[4] = percent inhibition at saturating ligand, normalized to reference ligand Substance P analog = 100%

Chain of Ghrelin receptor (Q92847 whole entry): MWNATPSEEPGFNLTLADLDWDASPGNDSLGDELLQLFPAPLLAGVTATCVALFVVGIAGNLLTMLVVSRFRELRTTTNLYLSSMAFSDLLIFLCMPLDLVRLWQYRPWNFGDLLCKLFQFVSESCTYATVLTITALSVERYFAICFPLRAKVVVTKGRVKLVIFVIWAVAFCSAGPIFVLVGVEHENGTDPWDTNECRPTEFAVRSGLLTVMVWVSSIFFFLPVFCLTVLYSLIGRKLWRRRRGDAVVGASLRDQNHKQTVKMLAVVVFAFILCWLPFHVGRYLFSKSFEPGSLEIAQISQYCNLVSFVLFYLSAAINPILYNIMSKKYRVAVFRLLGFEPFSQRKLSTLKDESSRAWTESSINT
T1 sequence (Q92847 whole entry): as above

Compound | IC50 [2, 3] [nM] | Emax [2] [%] | Emax [2, 4] [%] | other results
CCc1cccc2c(C(C)=O)cn(CCCN3C4CCC3CC(CC(=O)c3ccc(Cl)cc3)C4)c12 (stereo not drawn) | – | – | – | Ki [1]: 501 nM
COc1cccc2c(C(=O)NCC(C)C)cn(CCCN3CCC(c4nc5ccccc5s4)CC3)c12 [drawing 706] | – | – | – | pKi ([1]; Binding pKi): 6.30
CCCOC1CCN(CCCn2cc(C(C)=O)c3cccc(OC)c32)CC1 [drawing 713] | – | – | – | Ki [1]: 1260 nM
COc1cccc2c(C(=O)NCc3cccc(C)c3)cn(CCCN3CCC(Oc4cccc(Cl)c4)CC3)c12 | 31.6 | 93 | – | –
COc1cccc2c(C(C)=O)cn(CCCN3CCN(C(C)c4ccccc4)CC3)c12 (stereo not drawn) | 158 | – | 114 | –
CC(C)CC(=O)c1cn(CCCN2CCN(C(C)c3ccccc3)CC2)c2ccccc12 (stereo not drawn) | – | 106 | – | IC50 ([2]; […]): 398 nM
COc1cccc2c(C(=O)Cc3ccccc3)cn(CCCN3C4CCC3CC(Oc3ccccc3Cl)C4)c12 (stereo not drawn) | – | 129 | – | IC50 ([2]; […]): 3.98 nM
COc1cccc2c(C(C)=O)cn(CCCN3CCC(C#N)(c4ccccc4)CC3)c12 | – | 101 | – | pIC50 ([2]; RSAT pIC50): 6.70
CC(=O)c1cn(CCCN2CCN(c3ncc(C(F)(F)F)cc3Cl)CC2)c2ncccc12 | 63.1 | – | 91 | –
CCc1cccc2c(C(C)=O)cn(CCCN3CCN(Cc4ccc(Cl)cc4Cl)CC3)c12 | 251 | – | 106 | –
O=C(c1cn(CCCNCCOc2ccccc2)c2ncccc12)C(F)(F)F | – | – | 26 | –
CCCCC1CCN(CCCn2cc(CCC(C)=O)c3ccccc32)CC1 | 631 | – | 76 | –
COc1cccc2c(C(C)=O)cn(CC(C)CN3CCCN(CCc4ccccc4)CC3)c12 (stereo not drawn) | – | 31 | – | –
CC(=O)c1cn(CC(C)CN2CCC(Cc3ccccc3)CC2)c2ccccc12 (stereo not drawn) | 3980 | – | 121 | –
CC(=O)c1cn(CCCN2CCN(CCOc3ccccc3)CC2)c2c(C#N)cccc12 | 31.6 | – | 86 | –
COc1cccc2c(C(=O)NCC(C)C)cn(CCCN3CCN(CCOc4ccc(Cl)cc4)CC3)c12 | 63.1 | – | – | RSAT Eff(%) [2, 4]: 84%
CC(=O)c1cn(CCCN2CCC(Oc3cccc(Cl)c3)CC2)c2c(Br)cccc12 | 1 | – | 92 | –
CC(=O)c1cn(CCCN2CCC(Cc3ccccc3Cl)C2)c2c(C)cccc12 (stereo not drawn) | – | 47 | – | –
CC(=O)c1cn(CCCCN2CCC(Oc3ccc(F)cc3)CC2)c2ccccc12 | – | 41 | – | –
O=C(c1cn(CCCN2CCC(c3nc(-c4cccnc4)no3)CC2)c2ncccc12)C(F)(F)F | – | – | 72 | –
CCCOC1CCN(CCCn2cc(C(C)=O)c3ccc(Br)cc32)CC1 | 251 | – | 107 | –
COc1cccc2c(C(=O)NCc3cccc(C)c3)cn(CCCN3CCC(C(=O)c4ccccc4)CC3)c12 | – | 126 | – | IC50 ([2]; […]): 100 nM

Compound | IC50 [2, 3] [nM] | Emax [2] [%] | Emax [2, 4] [%] | other results
CC(=O)c1cn(CCCN2CCCC(Cc3ccccc3Cl)C2)c2c(Cl)cccc12 (stereo not drawn) | – | 47 | – | –
CCCOC1CCN(CCn2cc(C(C)=O)c3ccccc32)CC1 | – | 40 | – | IC50 ([2]; […]): 3160 nM
CC(=O)c1cn(CCCN2C3CCC2CC(OCC2CC2)C3)c2ccc(Br)cc12 (stereo not drawn) | 251 | – | 102 | –
COc1cccc2c(C(C)=O)cn(CC(C)CN3CCC(CCOc4ccc(Cl)cc4)CC3)c12 (stereo not drawn) | – | 22 | – | –
CC(=O)c1cn(CCCN2CCC(c3nc4ccccc4s3)CC2)c2ccccc12 [drawing 466] | 126 | – | – | RSAT Eff(%) [2, 4]: 99%
CC(=O)c1cn(CCCN2CCC(Oc3ccc(F)cc3)CC2)c2cc(Br)ccc12 | 2510 | – | 64 | –
CC(=O)c1cn(CCCN2CCC(Oc3ccccc3Cl)CC2)c2cc(Br)ccc12 | 5010 | – | 67 | –
CCCCC[C@H]1C[C@H]2CC[C@@H](C1)N2CCCn1cc(C(C)=O)c2cccc(Cl)c21 | – | 72 | – | IC50 ([2]; […]): 316 nM
CC(=O)c1cn(CCCN2CCC(Oc3ccc(Cl)cc3)CC2)c2cc(Br)ccc12 | 1260 | – | 74 | –
CC(=O)c1cn(CCCN2C3CCC2CC(Oc2ccc(F)cc2)C3)c2c(Cl)cccc12 (stereo not drawn) | 100 | – | 87 | –
COc1ccccc1C1CCN(CCCn2cc(CCC(C)=O)c3ccccc32)CC1 | 5010 | – | 78 | –
CCCCC[C@H]1C[C@H]2CC[C@@H](C1)N2CCCn1cc(C(=O)C2CC2)c2cccc(OC)c21 | – | 101 | – | IC50 ([2]; […]): 200 nM
COc1cccc2c(C(=O)NCC(C)C)cn(CCCN3CCN(CCOc4ccccc4)CC3)c12 | – | 118 | – | IC50 ([2]; […]): 126 nM
CCN(CC)C(=O)C1CCCN(CCCn2cc(C(C)=O)c3cccc(OC)c32)C1 (stereo not drawn) | – | 16 | – | –
COc1cccc2c(C#N)cn(CCCN3CCC(c4nc(-c5cccnc5)no4)CC3)c12 | – | – | 23 | –
COc1ccc2c(C(C)=O)cn(CCCN3C4CCC3CC(OCC3CC3)C4)c2c1 (stereo not drawn) | 158 | – | 93 | –
COc1cccc2c(C#N)cn(CCCN3CCN(Cc4ccc(Cl)cc4Cl)CC3)c12 | – | – | 30 | –
COc1ccc2[nH]c3c(c2c1)CCN(CC(C)Cn1c(=O)sc2ccccc21)C3 (stereo not drawn) | – | – | -10 | –
CCC(=O)c1cn(CCCN2CCC(O)(Cc3ccccc3)CC2)c2ccccc12 | – | 73 | – | IC50 ([2]; […]): 1000 nM
CCc1cccc2c(C(C)=O)cn(CCCN3CCC4(CC3)CC(=O)c3ccccc3O4)c12 | – | 85 | – | IC50 ([2]; […]): 126 nM
CCC(=O)c1cn(CCCN2CCC(Oc3ccccc3Cl)CC2)c2ccccc12 | 316 | – | 76 | –
COc1cccc2c(C(C)=O)cn(CCCN3CCC(N4CCOCC4)CC3)c12 | – | 95 | – | IC50 ([2]; […]): 1000 nM

Compound | IC50 [2, 3] [nM] | Emax [2] [%] | Emax [2, 4] [%] | other results
COc1cccc2c(C(=O)NCc3cccc(C)c3)cn(CCCN3C4CCC3CC(CCc3ccc(Cl)cc3)C4)c12 (stereo not drawn) | – | 77 | – | IC50 ([2]; […]): 25.1 nM
CCCCC1CCN(CCn2cc(C(C)=O)c3ccccc32)CC1 | – | 23 | – | –
CC(=O)c1cn(CCCN2C3CCC2CC(OCC2CC2)C3)c2cc(Br)ccc12 (stereo not drawn) | 501 | – | 130 | –
COc1cccc2c(C(C)=O)cn(CCCN3CCC(Oc4ccc(F)cc4)CC3)c12 [drawing 256] | – | 119 | – | IC50 ([2]; […]): 3.98 nM
COc1cccc2c(C(=O)c3ccccc3)cn(CCCN3CCC(C(=O)c4ccccc4)CC3)c12 | – | 102 | – | IC50 ([2]; […]): 501 nM
CC(=O)c1cn(CCCN2CCN(CCOc3ccc(Cl)cc3)CC2)c2c(C)cccc12 | – | 53 | – | –
CC(=O)c1cn(CC(C)CN2CCC(c3nc4ccccc4s3)CC2)c2ccccc12 (stereo not drawn) | 2510 | – | 78 | –
CC(=O)c1cn(CC(C)CN2CCN(C(C)c3ccccc3)CC2)c2ccccc12 (stereo not drawn) | 1000 | – | 35 | –
COc1ccc2c(c1)c(C(C)=O)cn2CCCN1CCC(Oc2ccccc2Cl)CC1 | 1000 | – | 95 | –
CC(=O)c1cn(CC(C)CN2CCC(C(=O)c3ccccc3)CC2)c2ccccc12 (stereo not drawn) | – | 2 | – | –
CCOC(=O)C1CCN(CCCn2cc(C(=O)C(F)(F)F)c3ccccc32)CC1 | – | 64 | – | IC50 ([2]; […]): 5010 nM
CCc1cccc2c(C(C)=O)cn(CCCN3CCCN(CCc4ccccc4)CC3)c12 | 31.6 | – | 103 | –
CC(=O)c1cn(CCCN2CCN(CCOc3ccccc3)CC2)c2ncccc12 | 631 | – | 81 | –
COc1ccccc1C1CCN(CCCn2cc(C(C)=O)c3cccc(Cl)c32)CC1 | 501 | – | 103 | –
CCc1cccc2c(C(C)=O)cn(CCCN3CCN(c4ncc(C(F)(F)F)cc4Cl)CC3)c12 | 158 | – | 90 | –
O=C(c1cn(CCCN2CCC(Oc3ccc(Cl)cc3)CC2)c2ccccc12)C(F)(F)F | 1580 | – | 77 | –
COc1cccc2c(C(=O)NCC(C)C)cn(CCCN3CCC(c4nc(-c5ccncc5)no4)CC3)c12 | 158 | – | – | RSAT Eff(%) [2, 4]: 93%
CCCOC1CCN(CC(O)Cn2cc(C(C)=O)c3ccccc32)CC1 (stereo not drawn) | 31600 | – | 18 | –
CC(=O)c1cn(CCCN2CCCN(CCc3ccccc3)CC2)c2c(Cl)cccc12 | 10 | – | 96 | –
CCc1cccc2c(C(C)=O)cn(CCCN3CCN(CCOc4ccc(Cl)c5ccccc45)CC3)c12 | – | 29 | – | –
CC(=O)c1cn(CCCN2C3CCC2CC(Oc2ccccc2Cl)C3)c2c(Br)cccc12 (stereo not drawn) | – | 65 | – | –
